One assay deals with rat P2X7 (Rattus norvegicus (Rat), UniProt Q64663). In words: Rat P2X7 functional assay (Ca2+ influx, Fluo-4, FDSS). The following applies: HEK293 cells stably expressing rat P2X7; BzATP final 10 microM; 7-point dose-response; read-out: Antagonistic activities with respect to the rat P2X7 receptor (IC50). It is filed as cell-based. The method, then: Rat P2X7 Functional Assay
The functional activity of compounds was determined by measuring changes in intracellular calcium concentration using a Ca^2+-sensitive fluorescent dye, Fluo-4 (Molecular Probes). The changes in fluorescent signal were monitored by the cell imaging technology by Hamamatsu Photonics's Functional Drug Screening System (FDSS). Increases in intracellular Ca^2+ concentration were readily detected upon activation with BzATP.
HEK293 cells stably expressing rat P2X7 (GenBank accession number NM_019256) were grown in Corning CellBIND cell culture flasks, in a 5% CO2 humidified incubator to about 80% confluence. Media composition consisted of Dulbecco's Modified Eagle Medium (high glucose), 10% fetal bovine serum ([…]), 100 units/[…] Penicillin, 100 microg/mL Streptomycin and 250 microg/mL Geneticine.
1. […] Plate-out HEK293-rat P2X7 cells (40 microL medium containing 5,000 cells per well) into poly-D-lysine coated 384-well plates (BD Falcon) at 24 h prior to assay.
2. Incubate at 37° C. in 5% CO2.
3. Incubate the plate at 37° C. in 5% CO2 for 1 h.
5. Test compounds were prepared at 100× the test concentration in DMSO by serial dilution with Biomek-FX liquid handling instrument. 33× diluted compound solutions in assay buffer were prepared in intermediate compound plate with Biomek-NX liquid handling instrument. A further 3× dilution occurred in below steps 6 and 7.
6. Add 20 microL of 33× diluted compound solutions into each well and leave the plate for 10 min under the dark at room temperature.
7. Measure activity by FDSS as follows: • Set the assay plate on the stacker of FDSS. • Start the detection of fluorescence intensity at 540 nm by 480 nm exicitation. • After 30 seconds, add 20 microL of assay buffer containing 30 microM BzATP (final 10 microM).
IC50 values for compounds of the present invention were determined from 7-point dose-response studies. Curves were generated using the average of duplicate wells for each data point. Finally, the IC50 values are calculated with the best-fit dose curve determined by XLfit (ID Business Solutions Ltd.).

The target in the next assay is human P2X7 (Homo sapiens (Human), UniProt Q99572). The assay is described as follows: Human P2X7 functional assay (Ca2+ influx, Fluo-4, FDSS). In kind it is cell-based. The following applies: antagonistic activity with respect to the human P2X7 receptor; BzATP final concentration 80 microM. The gist of the method:
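HEK293 cells stably expressing C-terminally FLAG-tagged human P2X7, loaded with Fluo-4. Compounds were preincubated for 10 min at room temperature, then 80 μM BzATP (final) was added and Ca2+ fluorescence read at 540 nm (480 nm excitation) by FDSS. IC50 values come from 7-point curves, duplicate wells.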

human P2X7, sequence (Q99572 whole entry): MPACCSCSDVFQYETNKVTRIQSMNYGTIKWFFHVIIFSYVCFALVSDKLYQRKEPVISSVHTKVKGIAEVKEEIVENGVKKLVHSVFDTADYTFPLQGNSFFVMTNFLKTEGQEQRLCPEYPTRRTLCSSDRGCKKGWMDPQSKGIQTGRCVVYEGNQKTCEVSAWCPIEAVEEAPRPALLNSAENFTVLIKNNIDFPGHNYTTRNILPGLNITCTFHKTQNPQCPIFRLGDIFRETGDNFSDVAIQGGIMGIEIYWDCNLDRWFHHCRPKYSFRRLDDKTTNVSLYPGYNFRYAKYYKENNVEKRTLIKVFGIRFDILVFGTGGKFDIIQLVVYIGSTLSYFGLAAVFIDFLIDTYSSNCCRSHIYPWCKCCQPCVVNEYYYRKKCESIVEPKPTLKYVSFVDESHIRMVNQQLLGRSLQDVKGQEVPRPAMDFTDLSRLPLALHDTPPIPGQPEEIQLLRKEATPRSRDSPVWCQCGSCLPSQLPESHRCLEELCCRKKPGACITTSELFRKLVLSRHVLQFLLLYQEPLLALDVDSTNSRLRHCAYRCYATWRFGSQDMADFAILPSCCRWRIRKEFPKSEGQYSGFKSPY
rat P2X7, sequence (Q64663 whole entry): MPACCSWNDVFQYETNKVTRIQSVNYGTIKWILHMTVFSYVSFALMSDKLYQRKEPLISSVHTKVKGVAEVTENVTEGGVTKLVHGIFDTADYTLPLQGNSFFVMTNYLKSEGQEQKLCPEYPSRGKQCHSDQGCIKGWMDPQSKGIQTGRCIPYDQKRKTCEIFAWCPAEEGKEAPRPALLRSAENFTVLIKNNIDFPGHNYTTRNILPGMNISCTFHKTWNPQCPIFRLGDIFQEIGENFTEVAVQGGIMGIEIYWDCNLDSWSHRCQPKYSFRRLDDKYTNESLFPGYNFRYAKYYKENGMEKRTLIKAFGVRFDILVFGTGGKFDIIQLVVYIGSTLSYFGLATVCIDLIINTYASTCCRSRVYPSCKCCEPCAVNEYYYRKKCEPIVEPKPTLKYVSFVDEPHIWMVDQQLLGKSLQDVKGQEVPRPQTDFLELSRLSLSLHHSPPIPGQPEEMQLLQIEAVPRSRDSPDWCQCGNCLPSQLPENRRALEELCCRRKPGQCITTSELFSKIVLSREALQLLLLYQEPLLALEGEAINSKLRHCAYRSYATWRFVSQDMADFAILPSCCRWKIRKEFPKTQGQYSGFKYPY

As for `O=C(NCc1ccc(F)c(F)c1Cl)[C@@H]1CC[C@H](O)c2ncccc21` [Example 82, (5R,8S)-N-(2-chloro-3,4-difluorobenzyl)-8-hy-droxy-5,6,7,8-tetrahydro-quinoline-5-carboxamide], the IC50 on rat P2X7 was under 1000 nM; on human P2X7, under 50 nM.
On to `O=C(NCc1cccc(C(F)(F)F)c1Cl)C1(O)CCC(O)c2ncccc21` (centres unmarked) [Example 25, N-(2-chloro-3-(trifluoro-methyl)benzyl)-5,8-dihydroxy-5,6,7,8-tetrahydroquinoline-5-carboxamide], for which the figures for the IC50 at rat P2X7 and against human P2X7 were under 1000 nM and 101 to 300 nM, respectively.
In the same order, the values of `N#CC[C@@]1(O)CC[C@@](F)(C(=O)NCc2ccc(F)cc2Cl)c2cccnc21` [Example 282, (5S,8S)-N-(2-chloro-4-fluorobenzyl)-8-(cyanomethyl)-5-fluoro-8-hydroxy-5,6,7,8-tetrahydroquinoline-5-carboxamide] are under 1000 nM and under 50 nM.
`N#CC[C@]1(O)CC[C@@](F)(C(=O)NCc2ccc(F)cc2Cl)c2cccnc21` [Example 281, (5S,8R)-N-(2-chloro-4-fluorobenzyl)-8-(cyanomethyl)-5-fluoro-8-hydroxy-5,6,7,8-tetrahydroquinoline-5-carboxamide]: the IC50 was under 1000 nM at rat P2X7 and 301 to 1000 nM against human P2X7.
In the same order, the values of `O=C(NCc1ccc(F)c(F)c1F)[C@@]1(F)CC[C@@H](O)c2ncccc21` [Example 136, (5R,8R)-5-fluoro-8-hydroxy-N-(2,3,4-trifluorobenzyl)-5,6,7,8-tetrahydroquinoline-5-carboxamide] are under 1000 nM and 101 to 300 nM.
With `COCc1cc(Cl)cc(Cl)c1CNC(=O)C1(F)CCC(O)c2ncccc21` (centres unmarked) [Example 23, N-(2,4-dichloro-6-(methoxy-methyl)benzyl)-5-fluoro-8 hydroxy-5,6,7,8-tetrahydro-quinoline-5-carboxamide], the IC50 on rat P2X7 is under 1000 nM; on human P2X7, under 50 nM.
For `Cc1cc(Cl)cc(Cl)c1CNC(=O)[C@]1(F)CC[C@@H](O)c2ncccc21` [Example 100, (5S,8R)-N-(2,4-dichloro-6-methylbenzyl)-5-fluoro-8-hydroxy-5,6,7,8-tetrahydroquinoline-5-carboxamide], in that order: under 1000 nM and under 50 nM.
Consider `Cc1cc(Cl)cc(Cl)c1CNC(=O)[C@@H]1C[C@@H](O)c2ncccc21` [Example 97, (5R,7R)-N-(2,4-dichloro-6-methylbenzyl)-7-hy-droxy-6,7-dihydro-5H-cyclopenta[b]pyridin-5-carboxamide], for which the half-maximal inhibitory concentration (IC50) on rat P2X7 was under 1000 nM; against human P2X7, under 50 nM.
As to `O=C(NCc1ccc(F)c(F)c1F)[C@]1(F)CC[C@@](O)(CO)c2ncccc21` [Example 308, (5S,8S)-5-fluoro-8-hydroxy-8-(hydroxymethyl)-N-(2,3,4-trifluorobenzyl)-5,6,7,8-tetrahydroquinoline-5-carboxamide], the IC50 at rat P2X7 was under 1000 nM; at human P2X7 it was 101 to 300 nM.
Regarding `CO[C@H]1CC[C@@](F)(C(=O)NCc2ccc(F)c(F)c2F)c2cccnc21` [Example 339, (5S,8S)-5-fluoro-8-methoxy-N-(2,3,4-trifluorobenzyl)-5,6,7,8-tetrahydroquinoline-5-carboxamide], the IC50 on rat P2X7 is under 1000 nM; against human P2X7, under 50 nM.
Consider `O=C(NCc1ccc(F)cc1Cl)[C@H]1CC[C@H](O)c2ncccc21` [Example 67, (5S,8S)-N-(2-chloro-4-fluorobenzyl)-8-hydroxy-5,6,7,8-tetrahydroquinoline-5-carboxamide], for which the IC50 on rat P2X7 is under 1000 nM; at human P2X7, 101 to 300 nM.
Consider `O=C(NCc1ccc(F)cc1F)[C@]1(F)CC[C@H](OCCO)c2ncccc21` [Example 347, (5S,8S)-N-(2,4-difluorobenzyl)-5-fluoro-8-(2-hydroxyethoxy)-5,6,7,8-tetrahydroquinoline-5-carboxamide], for which the figures for the IC50 on rat P2X7 and against human P2X7 were under 1000 nM and 50 to 100 nM, respectively.
For the compound `O=C(NC1CC1c1ccc(Cl)cc1Cl)[C@]1(F)CC[C@H](O)c2ncccc21` (stereo partly drawn) [Example 238, (5S,8S)-N-((trans)-2-(2,4-dichlorophenyl)cyclopropyl)-5-fluoro-8-hydroxy-5,6,7,8-tetrahydroquinoline-5-carboxamide], the results for the IC50 at rat P2X7 and at human P2X7 were under 1000 nM and under 50 nM, respectively.
In the same order, the values of `O=C(NCc1ccc(F)cc1Cl)[C@]1(F)CC[C@@](O)(CS(=O)(=O)CCO)c2ncccc21` [Example 301, (5S,8S)-N-(2-chloro-4-fluorobenzyl)-5-fluoro-8-hydroxy-8-(((2-hydroxyethyl)sulfonyl)methyl)-5,6,7,8-tetrahydroquinoline-5-carboxamide] are under 1000 nM and 50 to 100 nM.
Consider `Cc1cc(Cl)cc(Cl)c1CNC(=O)C1CCC(=O)c2ncccc21` (centres unmarked) [Example 1, N-(2,4-dichloro-6-methyl-benzyl)-8-oxo-5,6,7,8-tetrahydroquinoline-5-carboxamide], for which the IC50 was under 1000 nM on rat P2X7 and under 50 nM at human P2X7.
In the same order, the values of `O=C1NC[C@]2(CC[C@@](F)(C(=O)NCc3ccc(Cl)cc3Cl)c3cccnc32)O1` [Example 291, (5S,5′S)-N-(2,4-dichlorobenzyl)-5′-fluoro-2-oxo-6′,7′-dihydro-5′H-spiro [oxazolidine-5,8′-quinoline]-5′-carboxamide] are under 1000 nM and 101 to 300 nM.
For `O=C(NCc1ccc(Cl)cc1Cl)[C@@H]1CC[C@@H](O)c2ncccc21` [Example 87, (5R,8R)-N-(2,4-dichloro-benzyl)-8-hydroxy-5,6,7,8-tetrahydroquinoline-5-carboxamide], in that order: under 1000 nM and 50 to 100 nM.
Take `Cc1cccc(Cl)c1CNC(=O)[C@]1(F)CC[C@@H](O)c2ncccc21` [Example 122, (5S,8R)-N-(2-chloro-6-methylbenzyl)-5-fluoro-8-hydroxy-5,6,7,8,- tetrahydroquinoline-5-carboxamide]: the IC50 on rat P2X7 was under 1000 nM; against human P2X7 it was 50 to 100 nM.
Regarding `O=C(NCc1ccc(Cl)cc1Cl)[C@@H]1CC[C@H](O)c2ncccc21` [Example 66, (5R,8S)-N-(2,4-dichloro-benzyl)-8-hydroxy-5,6,7,8-tetrahydroquinoline-5-carboxamide], the values for the IC50 at rat P2X7 and at human P2X7 were under 1000 nM and under 50 nM, respectively.
In the case of `O=C(NCc1ccc(F)c(F)c1F)[C@]1(F)CC[C@H](OCCO)c2ncccc21` [Example 345, (5S,8S)-5-fluoro-8-(2-hydroxyethoxy)-N-(2.3.4-trifluorobenzyl)-5,6,7,8-tetrahydroquinoline-5-carboxamide], the IC50 at rat P2X7 was under 1000 nM; at human P2X7, under 50 nM.
With `O=C1CC[C@@](F)(C(=O)NCc2cccc(C(F)(F)F)c2Cl)c2cccnc21` [Example 247, (S)-N-(2-chloro-3-(trifluoromethyl)benzyl)-5-fluoro-8-oxo-5,6,7,8-tetrahydroquinoline-5-carboxamide], the values for the IC50 on rat P2X7 and at human P2X7 were under 1000 nM and under 50 nM, respectively.
As for `CO[C@H]1CC[C@](F)(C(=O)NCc2c(Cl)cc(Cl)cc2CO)c2cccnc21` [Example 333, (5R,8S)-N-(2,4-dichloro-6-(hydroxymethyl)benzyl)-5-fluoro-8-methoxy-5,6,7,8-tetrahydroquinoline-5-carboxamide], the IC50 on rat P2X7 is under 1000 nM; at human P2X7, 101 to 300 nM.

For the origin of these results see patent US11077100B2, “Tetrahydroquinoline derivatives as P2X7 receptor antagonists” (RaQualia Pharma Inc., priority 2017, dated 2021).
